In US6214615A (The United States of America as represented by the …, priority 1996, dated 2001):

Legend:
[1] = molecular target: T1, human dopamine D2 receptor (Homo sapiens, UniProt P14416); conditions: 0.7 nM ^3 H-raclopride; transfected COS-7 cells
Protocol: Expression and Transfection. […] COS-7 cells were plated at a density of 1×10^6 cells/10 cm dish.
(§1) Radioligand binding. Cells were scraped 48-72 hours after transfection into 10 ml of PBS/10 cm dish and pelleted at 1000× g. Cells were resuspended in 10 mM Tris, 1 mM EDTA, 5 mM MgCl2 and homogenized with a polytron (Brinkman). A total particulate fraction was prepared by centrifugation at 45,000× g for 15 min. […] Reactions were initiated by addition of 0.4 ml of tissue in binding buffer to 0.1 ml of drugs. […] Reactions were terminated by filtering membranes through Whatman GFC filters using a cell harvester (Brandel). Data were analyzed by nonlinear regression on a VAX II computer using the program DATAPLOT (distributed by the National Technical Information Service).

[2] = molecular target: T1, human dopamine D2 receptor; assay: Saturation radioligand binding to membranes of transfected COS-7 cells; design: rescreened with the S1 probe alone to identify those most likely to be full length; expressed in transfected cells; host or cells: COS-7 cells (transient, 16A-pCD-PS DNA)
Protocol: COS-7 cells were plated at a density of 1×10^6 cells/10 cm dish. One to two days after plating, cells were transfected with 16A-pCD-PS DNA using a modification of the calcium phosphate precipitation procedure.
as §1

T1 sequence (P14416 1-414 isoform P14416-2): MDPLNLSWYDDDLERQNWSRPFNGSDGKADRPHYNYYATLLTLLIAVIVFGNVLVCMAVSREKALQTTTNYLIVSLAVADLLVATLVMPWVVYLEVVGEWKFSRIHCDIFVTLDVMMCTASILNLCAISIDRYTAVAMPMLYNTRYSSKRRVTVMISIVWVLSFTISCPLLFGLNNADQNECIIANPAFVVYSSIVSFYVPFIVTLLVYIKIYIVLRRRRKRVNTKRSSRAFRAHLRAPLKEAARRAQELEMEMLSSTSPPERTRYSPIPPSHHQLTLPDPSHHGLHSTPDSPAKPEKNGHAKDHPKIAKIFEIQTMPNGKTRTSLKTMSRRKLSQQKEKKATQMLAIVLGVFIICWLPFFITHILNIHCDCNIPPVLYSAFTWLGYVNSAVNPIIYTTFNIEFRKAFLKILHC

Molecule | n (hill number) [1] | also measured
CN1CCc2cccc3c2[C@H]1Cc1ccc(O)c(O)c1-3 [apomorphine] | 1.0 ± 0.1 | –
CCN1CCC[C@H]1CNC(=O)c1cc(S(N)(=O)=O)ccc1OC [(-)sulphride] | 1.2 ± 0.2 | –
CN(C)CCCN1c2ccccc2Sc2ccc(Cl)cc21 [chlorpromazine] | 0.9 ± 0.1 | –
CCN1CCC[C@@H]1CNC(=O)c1cc(S(N)(=O)=O)ccc1OC [(+)sulphride] | 1.0 ± 0.1 | –
NCCc1ccc(O)c(O)c1 [dopamine] | 1.1 ± 0.1 | –
CCN1CCC[C@H]1CNC(=O)c1c(O)c(Cl)cc(Cl)c1OC [^3 H-raclopride] | – | maximum number of binding sites ([2]; COS-7 transfected with 16A-pCD-PS): 800±110 fmole/mg protein
^3 H-SCH23396 | – | displacable binding to transfected COS-7 cells ([2]; concentrations up to 5 nM, displaced by chlorpromazine): did not show significant displacable binding
